# Assays:
# Experiment in all cases: MIC, CLSI broth microdilution
# Type in all cases: cell-based
# [1] = test system: S. pneumoniae ASPN002 (Fluoroquinolone-susceptible, ATCC10813); conditions: Table 3
# In short: (§1)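 Broth microdilution per CLSI M7-A7, with serial two-fold compound dilutions in Mueller Hinton Broth mixed 1:1 with inoculum. Colonies from a previous-day agar plate were suspended in saline to a final 5×10^5 CFU/mL. Plates were incubated 20 hours at 35° C. in ambient air.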
# [2] = test system: S. pneumoniae ASPN1027 (Fluoroquinolone-resistant)
# In short: as §1
# [3] = test system: E. coli AECO066 (Fluoroquinolone-resistant)
# In short: as §1
# [4] = test system: E. coli AECO086 (Fluoroquinolone-resistant); conditions: Table 3
# In short: as §1
# [5] = test system: E. coli AECO002 (Fluoroquinolone susceptible); conditions: Table 3
# In short: as §1
# [6] = test system: E. coli AECO001 (Fluoroquinolone susceptible, ATCC25922)
# In short: as §1
# [7] = test system: S. pneumoniae ASPN001 (Fluoroquinolone-susceptible, ATCC49619)
# In short: as §1
# [8] = test system: S. aureus ASAU1031 (Fluoroquinolone-resistant)
# In short: as §1
# [9] = test system: A. baumannii AABA1020 (Fluoroquinolone-resistant); conditions: Table 3
# In short: as §1
# [10] = test system: S. aureus ASAU001 (Fluoroquinolone-susceptible, ATCC29213)
# In short: as §1
# [11] = test system: S. aureus ASAU002 (Fluoroquinolone-susceptible, ATCC33591 (MRSA)); conditions: Table 3
# In short: as §1
# [12] = test system: A. baumannii AABA1065 (Fluoroquinolone-susceptible)
# In short: as §1
# [13] = test system: P. aeruginosa APAE002 (Fluoroquinolone susceptible); conditions: Table 3
# In short: as §1
# [14] = test system: S. pneumoniae ASPN1018 (Fluoroquinolone-resistant); conditions: Table 3
# In short: as §1
# [15] = test system: P. aeruginosa APAE054 (Fluoroquinolone-resistant)
# In short: as §1
# [16] = test system: P. aeruginosa APAE001 (Fluoroquinolone-susceptible, ATCC27853)
# In short: as §1
# [17] = test system: S. aureus ASAU1033 (Fluoroquinolone-resistant); conditions: Table 3
# In short: as §1
# [18] = test system: A. baumannii AABA1009 (Fluoroquinolone-resistant); conditions: Table 2
# In short: as §1
Structure (SMILES),MIC ASPN002 [1],MIC ASPN 1027 ([2]; Table 2),MIC ASPN 1027 ([2]; Table 3),MIC AECO 066 ([3]; Table 2),MIC AECO 066 ([3]; Table 3),MIC AECO086 [4],MIC AECO002 [5],"MIC AECO 001 ([6]; Table 2, 35° C., 20 hours)",MIC AECO 001 ([6]; Table 3),MIC ASPN 001 ([7]; Table 2),MIC ASPN 001 ([7]; Table 3),MIC ASAU 1031 ([8]; Table 2),MIC ASAU 1031 ([8]; Table 3),MIC AABA1020 [9],MIC ASAU 001 ([10]; Table 2),MIC ASAU 001 ([10]; Table 3),MIC ASAU002 [11],MIC AABA 1065 ([12]; Table 2),MIC AABA 1065 ([12]; Table 3),MIC APAE002 [13],other results
"NC1CC2CC=Cc3c(c(F)cc4c(=O)c(C(=O)O)cn(C5CC5)c34)N2C1.O=C(O)C(F)(F)F [7C/30, (7aS,9S)-9-Amino-4-cyclopropyl-12-fluoro-1-oxo-4,7,7a,8,9,10-hexahydro-1H-pyrrolo[1′,2′:1,7]azepino-[2,3-h]quinoline-2-carboxylic acid trifluoroacetate]",C (MIC's of 2.0 μg/mL to 8.0 μg/mL = C),B (MIC's of greater than 1.0 μg/mL to 8.0 μg/mL = B),C (MIC's of 2.0 μg/mL to 8.0 μg/mL = C),C (MIC's of greater than 8.0 μg/mL = C),D (MIC's of greater than 8.0 μg/mL = D),D (MIC's of greater than 8.0 μg/mL = D),B (MIC's of 1.0 μg/mL to 2.0 μg/mL = B),B (MIC's of greater than 1.0 μg/mL to 8.0 μg/mL = B),B (MIC's of 1.0 μg/mL to 2.0 μg/mL = B),B (MIC's of greater than 1.0 μg/mL to 8.0 μg/mL = B),C (MIC's of 2.0 μg/mL to 8.0 μg/mL = C),C (MIC's of greater than 8.0 μg/mL = C),D (MIC's of greater than 8.0 μg/mL = D),D (MIC's of greater than 8.0 μg/mL = D),B (MIC's of greater than 1.0 μg/mL to 8.0 μg/mL = B),B (MIC's of 1.0 μg/mL to 2.0 μg/mL = B),B (MIC's of 1.0 μg/mL to 2.0 μg/mL = B),B (MIC's of greater than 1.0 μg/mL to 8.0 μg/mL = B),C (MIC's of 2.0 μg/mL to 8.0 μg/mL = C),D (MIC's of greater than 8.0 μg/mL = D),MIC ASPN1018 [14]: C (MIC's of 2.0 μg/mL to 8.0 μg/mL = C); MIC APAE 054 ([15]; Table 2): C (MIC's of greater than 8.0 μg/mL = C); MIC APAE 054 ([15]; Table 3): D (MIC's of greater than 8.0 μg/mL = D); MIC APAE 001 ([16]; Table 2): C (MIC's of greater than 8.0 μg/mL = C); MIC APAE 001 ([16]; Table 3): D (MIC's of greater than 8.0 μg/mL = D); MIC ASAU1033 [17]: D (MIC's of greater than 8.0 μg/mL = D); MIC AABA 1009 [18]: C (MIC's of greater than 8.0 μg/mL = C)
"N[C@@H]1C[C@H]2CCCc3c(c(F)cc4c(=O)c(C(=O)O)cn(C5CC5)c34)N2C1.O=C(O)C(F)(F)F [7D/39, (7aR,9R)-9-Amino-4-cyclopropyl-12-fluoro-1-oxo-4,5,6,7,7a,8,9,10-octahydro-1H-pyrrolo[1′,2′:1,7]-azepino[2,3-h]quinoline-2-carboxylic acid trifluoroacetate]",B (MIC's of 1.0 μg/mL to 2.0 μg/mL = B),C (MIC's of greater than 8.0 μg/mL = C),D (MIC's of greater than 8.0 μg/mL = D),C (MIC's of greater than 8.0 μg/mL = C),D (MIC's of greater than 8.0 μg/mL = D),D (MIC's of greater than 8.0 μg/mL = D),A (MIC's of less than 1.0 = A),A (MIC's of 1.0 μg/mL or less = A),A (MIC's of less than 1.0 = A),B (MIC's of greater than 1.0 μg/mL to 8.0 μg/mL = B),B (MIC's of 1.0 μg/mL to 2.0 μg/mL = B),C (MIC's of greater than 8.0 μg/mL = C),D (MIC's of greater than 8.0 μg/mL = D),D (MIC's of greater than 8.0 μg/mL = D),A (MIC's of 1.0 μg/mL or less = A),A (MIC's of less than 1.0 = A),A (MIC's of less than 1.0 = A),A (MIC's of 1.0 μg/mL or less = A),A (MIC's of less than 1.0 = A),B (MIC's of 1.0 μg/mL to 2.0 μg/mL = B),MIC ASPN1018 [14]: D (MIC's of greater than 8.0 μg/mL = D); MIC APAE 054 ([15]; Table 2): C (MIC's of greater than 8.0 μg/mL = C); MIC APAE 054 ([15]; Table 3): D (MIC's of greater than 8.0 μg/mL = D); MIC APAE 001 ([16]; Table 2): B (MIC's of greater than 1.0 μg/mL to 8.0 μg/mL = B); MIC APAE 001 ([16]; Table 3): C (MIC's of 2.0 μg/mL to 8.0 μg/mL = C); MIC ASAU1033 [17]: D (MIC's of greater than 8.0 μg/mL = D); MIC AABA 1009 [18]: C (MIC's of greater than 8.0 μg/mL = C)
"N[C@@H]1C[C@H]2CC=Cc3c(c(F)cc4c(=O)c(C(=O)O)cn(C5CC5)c34)N2C1.O=C(O)C(F)(F)F [7D/40, (7aR,9R)-9-Amino-4-cyclopropyl-12-fluoro-1-oxo-4,7,7a,8,9,10-hexahydro-1H-pyrrolo[1′,2′:1,7]-azepino[2,3-h]quinoline-2-carboxylic acid trifluoroacetate]",B (MIC's of 1.0 μg/mL to 2.0 μg/mL = B),C (MIC's of greater than 8.0 μg/mL = C),D (MIC's of greater than 8.0 μg/mL = D),C (MIC's of greater than 8.0 μg/mL = C),D (MIC's of greater than 8.0 μg/mL = D),D (MIC's of greater than 8.0 μg/mL = D),A (MIC's of less than 1.0 = A),A (MIC's of 1.0 μg/mL or less = A),A (MIC's of less than 1.0 = A),B (MIC's of greater than 1.0 μg/mL to 8.0 μg/mL = B),B (MIC's of 1.0 μg/mL to 2.0 μg/mL = B),C (MIC's of greater than 8.0 μg/mL = C),D (MIC's of greater than 8.0 μg/mL = D),D (MIC's of greater than 8.0 μg/mL = D),A (MIC's of 1.0 μg/mL or less = A),A (MIC's of less than 1.0 = A),A (MIC's of less than 1.0 = A),A (MIC's of 1.0 μg/mL or less = A),A (MIC's of less than 1.0 = A),B (MIC's of 1.0 μg/mL to 2.0 μg/mL = B),MIC ASPN1018 [14]: D (MIC's of greater than 8.0 μg/mL = D); MIC APAE 054 ([15]; Table 2): C (MIC's of greater than 8.0 μg/mL = C); MIC APAE 054 ([15]; Table 3): D (MIC's of greater than 8.0 μg/mL = D); MIC APAE 001 ([16]; Table 2): B (MIC's of greater than 1.0 μg/mL to 8.0 μg/mL = B); MIC APAE 001 ([16]; Table 3): B (MIC's of 1.0 μg/mL to 2.0 μg/mL = B); MIC ASAU1033 [17]: D (MIC's of greater than 8.0 μg/mL = D); MIC AABA 1009 [18]: C (MIC's of greater than 8.0 μg/mL = C)
